Measurements published in patent US7625891B2, “Heterocylic antiviral compounds” (Roche Palo Alto LLC, priority 2007, dated 2009).

Legend:
CCR5 [1] = molecular target: T1, CCR5 (Homo sapiens, UniProt P51681); test: Human CCR5 receptor-ligand binding assay (125I RANTES, CHO-Gα16-hCCR5 cells); design: expressed in transfected cells
Protocol: The construct was transfected into CHO-Gα16 cells by using Fugene Reagent (Roche).
Adherent cells in […] tissue culture flask (ca. 90% confluent) were harvested using 1 mM EDTA in PBS (phosphate-buffered saline) without Ca^2+ and Mg^2+. Cells were washed twice with PBS containing no Ca^2+ and Mg^2+.
Eighty μl CHO-Gα16-hCCR5 (1×10^6/mL) cells were added to 96 well plates.
The compound dilutions were made in PBS, 1% BSA. Total reaction volume was 100 μl per well. The test compounds were added to the cells prior to the addition of radioligand.
After incubation, the cells were harvested onto GF/C filter plates using Packard cell harvester. Filters were pretreated with 0.3% PEI/0.2% BSA for 30 min. The filter plate was washed rapidly 5 times with 25 mM HEPES, 500 mM NaCl, 1 mM CaCl2 and 5 mM MgCl2 adjusted to pH 7.1. Plates were dried in oven (70° C.) for 20 min, added with 40 μl scintillation fluid and sealed with Packard TopSeal-A. Packard Top Count was used to measure of the radioactivity for 1 min per well.
Total binding was determined with control wells added with radioisotope and buffer and the non-specific binding was determined using an excess cold RANTES to some of the control wells. Specific binding was determined by subtracting the non-specific form total binding. […] IC50 values were determined using varying concentrations of the test ligand in triplicates and the data was analyzed using GraphPad Prism (GraphPad, San Diego, Calif.).

NLBal pseudotyped HIV-1 = test: microbe, parasite or virus in culture; format: cell-based; settings: Human immunodeficiency virus 1, JC53BL, 72 h
Protocol: The sensitivity of a recombinant HIV-1 virus pseudotyped with the envelope proteins of the CCR5-tropic virus NLBal to test compounds was determined in a Luciferase reporter assay using JC53BL cells. NLBal pseudotyped HIV-1 was generated by calcium phosphate transfection of 293T cells (ATCC) with equal amounts of DNA of an envelope-deleted HIV-1 plasmid and of a NLBal envelope expression plasmid. The media (DMEM, 10% fetal bovine serum, 1% Penicillin/streptomycin, 1% Glutamine, all Gibco) was changed 16 h post-transfection and virus containing supernatant was harvested 48 h post-transfection. To determine the sensitivity of NLBal pseudotyped HIV-1, 25.000 JC53BL cells (NIH AIDS Reagent Program) were infected with NLBal pseudotyped HIV-1 in presence of a drug gradient in white 96 well plates (Greiner Bio-one). The volume was adjusted to 200 μL using assay media (DMEM, 10% fetal bovine serum, 1% Penicillin/streptomycin, 1% Glutamine). After incubation at 37° C., 90% relative humidity, 5% CO2 for 3 days, 50 μL of Steady-Glo® Luciferase reagent (Promega) was added, incubated for 5 min at RT and luminescence was measured using a luminometer (Luminoskan, Thermo). The 50% and 90% inhibitory concentrations were calculated using Microsoft XL Fit 4 software.

CCR5 [2] = molecular target: T1, CCR5; test: CCR5-mediated CCF (cell-cell fusion) assay, Hela-R5 / CEM-NKr-CCR5-Luc, luciferase readout; format: cell-based; design: host or cells: CEM-NKr-CCR5-Luc cells; settings: 24 hrs co-culture
Protocol: The capacity for novel compounds of the present invention to bind to the CCR5 receptor and thereby antagonize CCR5 function can be evaluated with assay systems known in the art. The capacity of compounds of the present invention to inhibit infection of CD4^+/CCR5^+ expressing cells can be determined using a cell-cell fusion assay as described in example 8 or an antiviral assay as described in example 9.
CCF assay was performed as described before (C. Ji, J. Zhang, N. Cammack and S. Sankuratri, J. Biomol. Screen. 2006 11(6):652-663). Hela-R5 cells (express gp160 from R5-tropic virus and HIV-1 Tat) were plated in 384 well white culture plates (BD Bioscience, Palo Alto, Calif.) at […] per well in phenol red-free Dulbecco's Modified Eagle Medium (DMEM) supplemented with 10% FBS, 1× Pen-Strep, 300 μg/mL G418, 100 μg/mL hygromycin, and 1 μg/mL Doxycycline (Dox) (BD Bioscience, Palo Alto, Calif.), using Multimek (Beckman, Fullerton, Calif.) and incubated at 37° C. overnight to induce the expression of gp160. Ten μL diluted compounds in medium containing 5% DMSO were added to the cells, followed by the addition of CEM-NKr-CCR5-Luc (obtained from NIH AIDS Research & Reference Reagents Program) that expresses CD4 and CCR5 and carries a […] long terminal repeat (LTR)-driven luciferase reporter gene at 1.5×10^4 cells/15 μL/well and incubated for 24 hrs. At the end of co-culture, 15 μL of Steady-Glo luciferase substrate was added into each well, and the cultures were sealed and gently shaken for 45 min. The luciferase activity were measured for 10 sec per well as luminescence by using 16-channel TopCount NXT (PerkinElmer, Shelton, CT) with 10 min dark adaptation and the readout is count per second (CPS). For the drug interaction experiments, small molecule compounds or antibodies were serially diluted in serum-free and phenol red-free RPMI containing 5% DMSO (CalBiochem, La Jolla, Calif.) and 1× Pen-Strep. Five μL each of the two diluted compound or mAb to be tested for drug-drug interactions were added to the Hela-R5 cells right before the addition of target cells.

[3] = system: collagen-induced arthritis; settings: collagen-induced arthritis model; cited from earlier work
HIV = settings: cited from earlier work
[4] = specific 125I RANTES binding, CHO-Gα16-hCCR5 cells, read-out: IC50

T1 sequence (P51681 whole entry): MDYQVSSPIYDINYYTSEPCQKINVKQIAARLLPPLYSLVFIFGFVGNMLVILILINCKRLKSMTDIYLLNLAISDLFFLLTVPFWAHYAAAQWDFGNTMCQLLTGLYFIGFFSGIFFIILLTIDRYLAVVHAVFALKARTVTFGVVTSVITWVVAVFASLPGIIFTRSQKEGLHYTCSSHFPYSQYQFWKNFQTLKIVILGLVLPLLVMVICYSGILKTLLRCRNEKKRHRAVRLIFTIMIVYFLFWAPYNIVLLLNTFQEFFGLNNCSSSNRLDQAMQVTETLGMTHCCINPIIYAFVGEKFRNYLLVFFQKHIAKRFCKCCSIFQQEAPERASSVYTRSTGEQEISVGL

## CCCC[C@H]1CN(CC2COC3OCCC23)C(=O)OC12CCN(C1(C)CCN(C(=O)c3c(C)ncnc3C)CC1)CC2 (single isomer, unassigned) [II-6]
CCR5 [1]; [4]
  IC50: 38 nM

## CCCCC1CN(C[C@H]2CC[C@H](OC)CC2)C(=O)OC12CCN(C1(C)CCN(C(=O)c3c(C)ncnc3C)CC1)CC2 (stereo partly drawn) [Compound I-3, 5-Butyl-9-[1-(4,6-dimethyl-pyrimidine-5-carbonyl)-4-methyl-piperidin-4-yl]-3-(trans-4-methoxy-cyclohexylmethyl)-1-oxa-3,9-diaza-spiro[5.5]undecan-2-one]
other
  melting point: 150.8 to 152.9 °C

## CCCCC1CN(C[C@H]2CC[C@H](OCC)CC2)C(=O)OC12CCN(C1(C)CCN(C(=O)c3c(C)ncnc3C)CC1)CC2 (stereo partly drawn) [Compound I-7, 5-Butyl-9-[1-(4,6-dimethyl-pyrimidine-5-carbonyl)-4-methyl-piperidin-4-yl]-3-(trans-4-ethoxy-cyclohexylmethyl)-1-oxa-3,9-diaza-spiro[5.5]undecan-2-one]
other
  melting point: 188.3 to 189.7 °C

## CCCCC1CN(C[C@H]2CC[C@@H](OCOC)CC2)C(=O)OC12CCN(C1(C)CCN(C(=O)c3c(C)ncnc3C)CC1)CC2 (stereo partly drawn) [Compound I-8, 5-Butyl-9-[1-(4,6-dimethyl-pyrimidine-5-carbonyl)-4-methyl-piperidin-4-yl]-3-(cis-4-methoxymethoxy-cyclohexylmethyl)-1-oxa-3,9-diaza-spiro[5.5]undecan-2-one]
NLBal pseudotyped HIV-1
  IC50: 5.2 nM

## CCCC[C@H]1CN(C[C@H]2[C@@H]3COC[C@@H]32)C(=O)OC12CCN(C1(C)CCN(C(=O)c3c(C)cc(C(F)F)nc3C)CC1)CC2 [II-4]
CCR5 [1]; [4]
  IC50: 10.8 nM

## CCCC[C@H]1CN(C[C@H]2COCCO2)C(=O)OC12CCN(C1(C)CCN(C(=O)c3c(C)cc(C#N)nc3C)CC1)CC2 [II-10]
NLBal pseudotyped HIV-1
  IC50: 2.6 nM
CCR5 [1]; [4]
  IC50: 17.2 nM
CCR5 [2]
  IC50: 1 nM

## CCCCC1CN(CC2CCN(C(C)=O)CC2)C(=O)OC12CCN(C1(C)CCN(C(=O)c3c(C)ncnc3C)CC1)CC2 (stereo not shown) [III-1, 3-(1-Acetyl-piperidin-4-ylmethyl)-5-butyl-9-[1-(4,6-dimethyl-pyrimidine-5-carbonyl)-4-methyl-piperidin-4-yl]-1-oxa-3,9-diaza-spiro[5.5]undecan-2-one]
CCR5 [2]
  IC50: 25.2 nM

## CCCCC1CN(CC2CCCN(C(C)=O)C2)C(=O)OC12CCN(C1(C)CCN(C(=O)c3c(C)ncnc3C)CC1)CC2 (stereo not shown) [III-2]
CCR5 [2]
  IC50: 17.4 nM

## CCCC[C@H]1CN(CC2CCN(C(=O)OC)CC2)C(=O)OC12CCN(C1(C)CCN(C(=O)c3c(C)ncnc3C)CC1)CC2 [III-6]
CCR5 [1]; [4]
  IC50: 46.5 nM

## CCCC[C@H]1CN(CC2CCN(CC(F)F)CC2)C(=O)OC12CCN(C1(C)CCN(C(=O)c3c(C)cc(C#N)nc3C)CC1)CC2 [III-12]
CCR5 [1]
  IC50: 49.4 nM

## CCCC[C@H]1CN(C[C@H]2[C@@H]3CN(C(=O)OC)C[C@@H]32)C(=O)OC12CCN(C1(C)CCN(C(=O)c3c(C)noc3C(F)(F)F)CC1)CC2 [III-20]
NLBal pseudotyped HIV-1
  IC50: 3 nM
CCR5 [1]; [4]
  IC50: 14 nM
CCR5 [2]
  IC50: < 2.5 nM

## CCCC[C@H]1CN(C[C@H]2C[C@H]3CC[C@@H](C2)N3C(=O)OC)C(=O)OC12CCN(C1(C)CCN(C(=O)c3c(C)ncnc3C)CC1)CC2 [III-22]
NLBal pseudotyped HIV-1
  IC50: 2.2 nM
CCR5 [1]; [4]
  IC50: 21.2 nM
CCR5 [2]
  IC50: 3 nM

## CCCC[C@H]1CN(CC2CCN(S(C)(=O)=O)CC2)C(=O)OC12CCN(C1(C)CCN(C(=O)c3c(C)noc3C(F)(F)F)CC1)CC2 [III-23]
NLBal pseudotyped HIV-1
  IC50: 6 nM
CCR5 [1]; [4]
  IC50: 38.8 nM
CCR5 [2]
  IC50: < 2.5 nM

## CCCC[C@H]1CN(C2CCC(F)(F)CC2)C(=O)OC12CCN(C1(C)CCN(C(=O)c3c(C)ncnc3C)CC1)CC2 [IV-7, (S)-5-Butyl-3-(4,4-difluoro-cyclohexyl)-9-[1-(4,6-dimethyl-pyrimidine-5-carbonyl)-4-methyl-piperidin-4-yl]-1-oxa-3,9-diaza-spiro[5.5]undecan-2-one]
CCR5 [1]; [4]
  IC50: 19.2 nM

## Cc1ccc(-c2ccc3c(c2)C=C(C(=O)Nc2ccc(C[N+](C)(C)C4CCOCC4)cc2)CCC3)cc1.[Cl-] [TAK-779]
[3]
  incidence and severity of arthritis: reduce both the incidence and severity of arthritis
  infiltration of inflammatory CCR5+ T-cells into the joint: inhibited

B1: RANTES: CC chemokine, naturally occurring ligand that can stimulate the CCR5 receptor (protein, UniProt P13501 24-91, looked up)
C-C motif chemokine 5: SPYSSDTTPCCFAYIARPLPRAHIKEYFYTSGKCSNPAVVFVTRKNRQVCANPEKKWVREYINSLEMS
HIV
  HIV entry into the cells: block HIV entry into the cells
